This note sets out measurements from EP0037516A1, “N-omega substituted derivatives of 1-Desamino-vasopressin analogs” (VEGA LABORATORIES, INC., priority 1980, dated 1981).

Experiment [1] has as its system Factor VIII. Briefly: Factor VIII releasing activity in pentothal-anesthetized dogs, standard clotting assay. The following applies: dogs. It counts as in vivo. How it is done: The 9-Ala-NH2 analogs of Examples XII and XIII were evaluated for ability to stimulate production of Factor VIII by administration to pentothal-anesthestized dogs. These analogs, as well as desmopressin used as a control, were administered i.v. into the external jugular vein at a dose of 10 meg/kg body weight. Factor VIII analysis was performed by standard clotting assay (using normal dog plasma as 100% clotting and severely hemophilic dog plasma as 0% for the standard curve) just prior to injection, and at periodic intervals for up to 4 hours after injection.

The test system of experiment [2] is Factor VIII. Briefly: Factor VIII release, clotting assay in male canine citrated plasma. The class given is in vivo. The conditions noted are these: for Factor VIII Releasing Activity: male canine citrated plasma, calibrated against desmopressin; for Factor VIII releasing activity (in words): comment on Table 5. How it is done: Pressor and antidiuretic assays of the compounds of Examples I-IV were carried out in 200g body weight, male Sprague-Dawley rats using the techniques reported by Schaechtelin et al in "Enhancement of the Activity of Angiotensin II by Certain Cations," Molec. Pharmacol., 10, 57-67 (1974) and Cort et al in "Role of the Disulfide Bridge and the C-Terminal Tripeptide in the Anti-diuretic Action of Vasopressin in Man and the Rat", Kidney Internat. , 8, 292-302 (1975), with calibration of responses against a 3-point curve using highly purified arginine-vasopressin of known activity. Similar tests were performed on known vasopressin analogs for purposes of comparison. In addition, the release of Factor VIII by the compounds of Examples I-IV was tested in male canine citrated plasna using the clotting assay described by Prowse et al, in Brit. J. Haematol., 41, 437 (1979), and the results were calibrated against the Factor VIII releasing activity of desmopressin. In all cases, the half-lives of the responses were compared to the standard at equi-peak-potent levels.

A short description of experiment [3]: Pressor assay in rats, calibrated against arginine-vasopressin. The following applies: for Peak Potency (pressor activity): 200g male Sprague-Dawley rats, calibrated against arginine-vasopressin; for pressor activity (in words): comment on Table 3; for Mean Peak Potency (Product) F: pressor activity, peak potency multiplied by F; for Ratio of Half-Life of Compound to Parent Half-Life (F): pressor response. It counts as in vivo, male Sprague-Dawley rats.

The nature of experiment [4]: Antidiuretic assay in rats, calibrated against arginine-vasopressin. The class given is in vivo, male Sprague-Dawley rats. The following applies: for Peak Potency (antidiuretic activity): 200g male Sprague-Dawley rats, calibrated against arginine-vasopressin; for Mean Peak Potency (Product) F: antidiuretic activity, peak potency multiplied by F; for Ratio of Half-Life of Compound to Parent Half-Life (F): antidiuretic response; for antidiuretic activity (in words): comment on Table 4.

The mark [5] stands for this setting: Pre-Injection, normal dog plasma = 100% clotting.
Setting [6] is: as compared to [2-Phe,8-Lys]-vasopressin.
Where [7] appears, read: no comparator footnote (parent itself).
Where [8] appears, read: as compared to [8-Lys]-vasopressin (footnote *).

Marks after values point to notes of the source that are not given here. *1 amine or outer side, *2 acyl side, *3 side chain or, on linkers, in order; H or OH if unused. Where a SMILES comes first, the peptide text is derived from it. Bridges are numbered along the chain shown (N, C = ends). Side-chain parts run from the residue outwards. [ ]: non-standard residue; d: D form. Thz = O=C(O)[C@@H]1CSCN1; X1 = O=C(CCC[*:2])[*:1]; Mpa = O=C(O)CCS

With `C[C@H](NC(=O)[C@@H](CCCCNC(=O)CNC(=O)CNC(=O)CN)NC(=O)[C@@H]1CCCN1C(=O)[C@@H]1CSSCCC(=O)N[C@@H](Cc2ccc(O)cc2)C(=O)N[C@@H](Cc2ccccc2)C(=O)N[C@@H](CCC(N)=O)C(=O)N[C@@H](CC(N)=O)C(=O)N1)C(N)=O` [Example XIII, 1-Desamino-[Q-D-NE-Lys(Gly-Gly-Gly), 9-Ala-NH2]-vasopressin] ([Mpa]YFQNCP[dK]([Gly-Gly-Gly])A-NH2; disulfide 1-6), the “Factor VIII Releasing Activity” value in experiment [1] (15 min. after i.v. 10 meg/kg) is on record as 115%; in experiment [1] (60 min. after i.v. 10 meg/kg), 153%; in experiment [1] (120 min. after i.v. 10 meg/kg), 175%; in experiment [1] (240 min. after i.v. 10 meg/kg), 210%; in experiment [1] (setting [5]), 105%.

Take `NCC(=O)NCCCC[C@H](NC(=O)[C@@H]1CCCN1C(=O)[C@@H]1CSSCCC(=O)N[C@@H](Cc2ccccc2)C(=O)N[C@@H](Cc2ccccc2)C(=O)N[C@@H](CCC(N)=O)C(=O)N[C@@H](CC(N)=O)C(=O)N1)C(=O)NCC(N)=O` [Example I, l-Desamino-[2-Phe, 8-N^ε-Lys(Gly)]-Vasopressin] ([Mpa]FFQNCPK(Gly)G-NH2; disulfide 1-6): the “Factor VIII Releasing Activity” value in experiment [2] turned out to be 101%. Also, in experiment [3], the “Peak Potency (pressor activity)” value is reported as 6.9 IU/mg, the “pressor activity (in words)” value is given as “prolonged pressor activity of higher potency than that of tGLVP” and the “Mean Peak Potency (Product) F” value amounted to 60. Further, the “Ratio of Half-Life of Compound to Parent Half-Life (F)” value (“Ratio of Half-Life of Compound” below) in experiment [3] (setting [6]) is reported as 8.7**. In experiment [4], the “Peak Potency (antidiuretic activity)” value is listed as 6 IU/mg, the “Mean Peak Potency (Product) F” value is listed as 24 and the “antidiuretic activity (in words)” value is “low antidiuretic activity”. The “Ratio of Half-Life of Compound” value in experiment [4] (comparator not given) is recorded as 4.0.

Consider `NCCCC[C@H](NC(=O)[C@@H]1CCCN1C(=O)[C@@H]1CSSC[C@H](N)C(=O)N[C@@H](Cc2ccccc2)C(=O)N[C@@H](Cc2ccccc2)C(=O)N[C@@H](CCC(N)=O)C(=O)N[C@@H](CC(N)=O)C(=O)N1)C(=O)NCC(N)=O` [[2-Phe, 8-Lys]-vasopressin, reference compound] (H-CFFQNCPKG-NH2; disulfide 1-6), for which, in experiment [3], the “Peak Potency (pressor activity)” value was found to be 80 IU/mg and the “Mean Peak Potency (Product) F” value is given as 80. The “Ratio of Half-Life of Compound” value in experiment [3] (setting [7]) stood at 1.0. Moreover, in experiment [4], the “Peak Potency (antidiuretic activity)” value worked out at 25 IU/mg and the “Mean Peak Potency (Product) F” value came out at 25. The “Ratio of Half-Life of Compound” value in experiment [4] (comparator not given) is 1.0.

Take `CC[C@H](C)[C@@H]1NC(=O)[C@H](Cc2ccc(O)cc2)NC(=O)CCSSC[C@@H](C(=O)N2CCC[C@H]2C(=O)N[C@H](CCCCNC(=O)CN)C(=O)NCC(N)=O)NC(=O)[C@H](CC(N)=O)NC(=O)[C@H](CCC(N)=O)NC1=O` [Example III, 1-Desamino-[8-D-N^ε-Lys(Gly)]-Vasotocin] ([Mpa]YIQNCP[dK](Gly)G-NH2; disulfide 1-6): in experiment [2], the “Factor VIII releasing activity (in words)” value is listed as “significant activity in releasing Factor VIII” and the “Factor VIII Releasing Activity” value is 165%. For the same compound, in experiment [3], the “Peak Potency (pressor activity)” value amounted to 0.1 IU/mg and the “pressor activity (in words)” value is given as “substantially devoid of pressor activity”. Further, in experiment [4], the “Peak Potency (antidiuretic activity)” value was found to be 290 IU/mg, the “Mean Peak Potency (Product) F” value was 1508 and the “antidiuretic activity (in words)” value is on record as “considerable antidiuretic activity”. Besides, the “Ratio of Half-Life of Compound” value in experiment [4] (as compared to 1-desamino-[8-Lys]-vasopressin (footnote *)) was 5.2*.

In the case of `NCCCC[C@H](NC(=O)[C@@H]1CCCN1C(=O)[C@@H]1CSSC[C@H](NC(=O)CNC(=O)CNC(=O)CN)C(=O)N[C@@H](Cc2ccc(O)cc2)C(=O)N[C@@H](Cc2ccccc2)C(=O)N[C@@H](CCC(N)=O)C(=O)N[C@@H](CC(N)=O)C(=O)N1)C(=O)NCC(N)=O` [tGLVP, N^c<-glycyl-glycyl-glycyl-8-lysine-vasopressin, reference compound] (H-GGGCYFQNCPKG-NH2; disulfide 4-9), in experiment [3], the “Peak Potency (pressor activity)” value is 2.1 IU/mg and the “Mean Peak Potency (Product) F” value came to 8.4. In experiment [3] (setting [8]), the “Ratio of Half-Life of Compound” value is 4.0*. In experiment [4], the “Peak Potency (antidiuretic activity)” value amounted to 1.1 IU/mg and the “Mean Peak Potency (Product) F” value is listed as 9.2. Moreover, the “Ratio of Half-Life of Compound” value in experiment [4] (comparator not given) was determined as 4.0.

On to `CC(C)C[C@H](N)C(=O)NCCCC[C@H](NC(=O)[C@@H]1CSCN1C(=O)[C@@H]1CSCCCC(=O)N[C@@H](Cc2ccc(O)cc2)C(=O)N[C@@H](Cc2ccccc2)C(=O)N[C@@H](CCC(N)=O)C(=O)N[C@@H](CC(N)=O)C(=O)N1)C(=O)NCC(N)=O` [Example IV, 1-Desamino-1-monocarba-[7-thioPro, 8-NE-Lys(Leu)]-Vasopressin] (YFQNC[Thz]K(Leu)G-NH2; linker N-5 via X1), for which, in experiment [2], the “Factor VIII releasing activity (in words)” value is listed as “significant activity in releasing Factor VIII” and the “Factor VIII Releasing Activity” value was 285%. Also, in experiment [3], the “Peak Potency (pressor activity)” value stood at 350 IU/mg, the “pressor activity (in words)” value is given as “prolonged pressor activity of higher potency than that of tGLVP” and the “Mean Peak Potency (Product) F” value was 3675. The “Ratio of Half-Life of Compound” value in experiment [3] (as compared to 1-desamino-[8-Lys]-vasopressin (footnote ***)) is 10.5***. Further, in experiment [4], the “Peak Potency (antidiuretic activity)” value is on record as 450 IU/mg, the “Mean Peak Potency (Product) F” value worked out at 3015 and the “antidiuretic activity (in words)” value was “considerable antidiuretic activity”. The “Ratio of Half-Life of Compound” value in experiment [4] (comparator not given) amounted to 6.7.

For the compound `C[C@@H](NC(=O)[C@H](CCCCNC(=O)CNC(=O)CNC(=O)CN)NC(=O)[C@@H]1CCCN1C(=O)[C@@H]1CSSCCC(=O)N[C@@H](Cc2ccc(O)cc2)C(=O)N[C@@H](Cc2ccccc2)C(=O)N[C@@H](CCC(N)=O)C(=O)N[C@@H](CC(N)=O)C(=O)N1)C(N)=O` [Example XII, 1-Desamino-[8-N^9-Lys(Gly-Gly-Gly), 9-D-Ala]-vasopressin] ([Mpa]YFQNCPK([Gly-Gly-Gly])[dA]-NH2; disulfide 1-6), the “Factor VIII Releasing Activity” value in experiment [1] (15 min. after i.v. 10 meg/kg) turned out to be 110%; in experiment [1] (60 min. after i.v. 10 meg/kg) it was 165%; in experiment [1] (120 min. after i.v. 10 meg/kg) it was 185%; in experiment [1] (240 min. after i.v. 10 meg/kg), 220%; in experiment [1] (setting [5]), 100%.

As to `NCCCC[C@H](NC(=O)[C@@H]1CCCN1C(=O)[C@@H]1CSSC[C@H](N)C(=O)N[C@@H](Cc2ccc(O)cc2)C(=O)N[C@@H](Cc2ccccc2)C(=O)N[C@@H](CCC(N)=O)C(=O)N[C@@H](CC(N)=O)C(=O)N1)C(=O)NCC(N)=O` [[8-Lys]-vasopressin, reference compound], in experiment [3], the “Peak Potency (pressor activity)” value is listed as 220 IU/mg and the “Mean Peak Potency (Product) F” value was determined as 220. Moreover, in experiment [3] (setting [7]), the “Ratio of Half-Life of Compound” value was 1.0. Moreover, in experiment [4], the “Peak Potency (antidiuretic activity)” value stood at 200 IU/mg and the “Mean Peak Potency (Product) F” value is given as 220. Besides, the “Ratio of Half-Life of Compound” value in experiment [4] (comparator not given) stood at 1.0.

Turning to `NCCCC[C@H](NC(=O)[C@@H]1CCCN1C(=O)[C@@H]1CSSCCC(=O)N[C@@H](Cc2ccc(O)cc2)C(=O)N[C@@H](Cc2ccccc2)C(=O)N[C@@H](CCC(N)=O)C(=O)N[C@@H](CC(N)=O)C(=O)N1)C(=O)NCC(N)=O` [1-desamino-[8-Lys]-vasopressin, reference compound], in experiment [3], the “Peak Potency (pressor activity)” value is 126 IU/mg and the “Mean Peak Potency (Product) F” value stood at 189. The “Ratio of Half-Life of Compound” value in experiment [3] (setting [8]) was 1.5*. Besides, in experiment [4], the “Peak Potency (antidiuretic activity)” value turned out to be 300 IU/mg and the “Mean Peak Potency (Product) F” value came to 450. Also, the “Ratio of Half-Life of Compound” value in experiment [4] (comparator not given) is on record as 1.5.

As to `NCCCC[C@H](NC(=O)[C@@H]1CCCN1C(=O)[C@@H]1CSSCCC(=O)N[C@@H](Cc2ccccc2)C(=O)N[C@@H](Cc2ccccc2)C(=O)N[C@@H](CCC(N)=O)C(=O)N[C@@H](CC(N)=O)C(=O)N1)C(=O)NCC(N)=O` [1-desamino-[2-Phe, 8-Lys]-vasopressin, 1-desamino-[2-Phe, 8-Lys]vasopressin, reference compound] ([Mpa]FFQNCPKG-NH2; disulfide 1-6), the “Peak Potency (pressor activity)” value in experiment [3] was found to be 45 IU/mg. Further, the “Mean Peak Potency (Product) F” value in experiment [3] was 67.5; in experiment [4], 45. The “Ratio of Half-Life of Compound” value in experiment [3] (setting [6]) is 1.5**; in experiment [4] (comparator not given), 1.5. For the same compound, the “Peak Potency (antidiuretic activity)” value in experiment [4] was determined as 30 IU/mg.
